Tests used:
[1] = EPA determination; cited from earlier work
[2] = EPA determination; cited from earlier work; remark: listed apart in the source
[3] = EPA determination, cited from earlier work
[4] = system: most types of plant material; test: Spray solution over the tops of growing plant material; type: in vivo; settings: diluted in water, sprayed over the tops of growing plant material, no foam
[5] = system: algae, bacteria, fungi, viruses and bryophyte plant material such as mosses, liverworts, hornworts, lichens; test: 1% spray solution on simple celled plant material; type: in vivo
From the text: The pH of the resulting solution is typically alkaline, which activates the H2O2 for bleaching. The dry powder contains about 30% by weight w/w H2O2 and finds specialty use as a wood brightener and general cleaning aid.

[6] = EPA determination; cited from earlier work; remark: listed apart in the source

For `O=C([O-])[O-].O=C([O-])[O-].OO.OO.OO.[Na+].[Na+].[Na+].[Na+]` [sodium carbonate peroxyhydrate], the eye damage [1] is listed as “severe irreversible eye damage”, the dermal irritation [2] is listed as “Dermal irritation also occurred” and the “toxicity, dermal exposure” value ([3]; dermal exposure) is listed as “minimal to mild toxicity”. The “toxicity, oral exposure” value ([3]; oral exposure) was “minimal to mild toxicity”, the “phytotoxicity effects of spray solution” value [4] was “minimal with some plant cell necrosis” and the “effect on simple celled plant material” value [5] was “kill on contact”. For the same compound, the dermal sensitizer [6] was “not considered a dermal sensitizer”.
